Test results taken from ChEMBL document CHEMBL1201862, “PubChem BioAssay data set” (2004).
Calls of active or inactive are those of the source.

Tests used:
Troponin, cardiac muscle = Troponin, cardiac muscle (Homo sapiens, UniProt P19429+P45379+P63316); assay: Fluorescence-based biochemical high throughput dose response assay for activators of the calcium sensitivity of cardiac Regulated Thin Filaments (RTF). [Related pubchem assays (depositor defined):AID493008, AID493018, AID504382, AID504383]; format: protein-complex assay
HEK293 [1] = assay: cells; format: functional, cell-based; conditions: Homo sapiens
[2] = biological target: T1, Microphthalmia-associated transcription factor (Homo sapiens, UniProt O75030); assay: TRPM1 promoter luciferase signal decrease, dose response, MITF inhibitor project, cell-based, SK-MEL-5, cherry-picked, set 3 (AID 493073); format: functional
T1 sequence (O75030 whole entry): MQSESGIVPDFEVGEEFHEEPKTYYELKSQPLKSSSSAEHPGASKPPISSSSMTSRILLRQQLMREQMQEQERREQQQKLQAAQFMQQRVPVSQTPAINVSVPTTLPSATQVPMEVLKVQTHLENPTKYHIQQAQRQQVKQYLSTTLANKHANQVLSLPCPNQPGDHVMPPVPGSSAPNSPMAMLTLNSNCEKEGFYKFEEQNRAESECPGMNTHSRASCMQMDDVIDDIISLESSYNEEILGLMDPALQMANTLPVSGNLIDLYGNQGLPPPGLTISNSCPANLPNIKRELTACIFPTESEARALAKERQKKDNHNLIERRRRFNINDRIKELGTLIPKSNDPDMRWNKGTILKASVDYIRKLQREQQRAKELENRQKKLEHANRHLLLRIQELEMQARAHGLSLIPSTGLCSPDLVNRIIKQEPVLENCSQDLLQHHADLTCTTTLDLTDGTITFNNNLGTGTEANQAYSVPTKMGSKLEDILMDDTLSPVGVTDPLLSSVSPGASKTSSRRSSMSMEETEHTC

BJ [3] = assay: cytotoxicity toward BJ-TERT-LT-ST fibroblasts, dose response, cell-based, RAS-independent, luminescence (AID 1935); format: functional; conditions: Homo sapiens;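 also: BJ fibroblasts immortalized with TERT plus LT and ST oncogenes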
[4] = biological target: Nucleotide-binding oligomerization domain-containing protein 2 (Homo sapiens, UniProt Q9HC29); assay: NOD2 signaling inhibitors, cell-based, luminescence, uHTS, HEK293 (AID 1566); format: functional
[5] = cytotoxicity toward DRD oncogenic fibroblasts, dose response, cell-based, non-viral oncogenic, luminescence (AID 1934); format: functional; conditions: Homo sapiens
BJ [6] = assay: cells; format: functional, cell-based; conditions: Homo sapiens
BJ [7] = assay: cytotoxicity toward BJ-TERT fibroblasts, dose response, cell-based, RAS-independent, luminescence (AID 1933); format: functional; conditions: Homo sapiens
HEK293 [8] = assay: NOD1 signaling inhibitors, primary screen, cell-based, luminescence, uHTS (AID 1578); format: functional; conditions: Homo sapiens
HEK293 [9] = assay: NOD2 signaling inhibitors in MDP-stimulated cells, cell-based, uHTS, luminescence (AID 2001); format: functional; conditions: Homo sapiens
Protein RecA = biological target: T2, Protein RecA (Mycobacterium tuberculosis, UniProt P9WHJ3); assay: Fluorescence Cell-Free Homogeneous Dose Retest to Identify Inhibitors of RecA-Intein Splicing Activity. [Related pubchem assays (depositor defined):AID2097, AID2223, AID489010, AID492950]; format: functional
T2 sequence (P9WHJ3 whole entry): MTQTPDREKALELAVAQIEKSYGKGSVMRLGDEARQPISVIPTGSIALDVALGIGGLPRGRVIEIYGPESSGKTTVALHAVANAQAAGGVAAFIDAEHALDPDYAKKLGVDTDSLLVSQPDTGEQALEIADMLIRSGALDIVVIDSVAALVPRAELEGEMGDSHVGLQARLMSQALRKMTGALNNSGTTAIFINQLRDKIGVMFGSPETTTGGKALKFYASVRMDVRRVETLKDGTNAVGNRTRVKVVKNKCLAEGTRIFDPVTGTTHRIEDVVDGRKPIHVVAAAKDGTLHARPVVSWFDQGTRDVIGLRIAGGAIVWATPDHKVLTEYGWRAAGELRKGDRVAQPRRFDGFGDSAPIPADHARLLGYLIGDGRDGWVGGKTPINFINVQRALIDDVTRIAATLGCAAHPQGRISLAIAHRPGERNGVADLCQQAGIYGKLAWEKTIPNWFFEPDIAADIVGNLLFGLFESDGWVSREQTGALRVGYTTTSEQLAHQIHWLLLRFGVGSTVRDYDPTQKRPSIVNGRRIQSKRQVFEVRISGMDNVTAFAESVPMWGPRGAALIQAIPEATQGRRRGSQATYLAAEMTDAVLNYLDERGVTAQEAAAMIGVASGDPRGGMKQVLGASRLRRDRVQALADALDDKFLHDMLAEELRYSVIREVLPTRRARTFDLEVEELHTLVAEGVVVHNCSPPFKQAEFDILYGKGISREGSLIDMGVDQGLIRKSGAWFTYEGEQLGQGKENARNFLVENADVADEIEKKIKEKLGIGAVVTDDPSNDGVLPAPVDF

[10] = biological target: T3, Replicative DNA helicase DnaB (Mycobacterium tuberculosis, UniProt P9WMR3); assay: DnaB intein splicing inhibitors, dose response, biochemical, cell-free fluorescence (AID 449749); format: functional
T3 sequence (P9WMR3 whole entry): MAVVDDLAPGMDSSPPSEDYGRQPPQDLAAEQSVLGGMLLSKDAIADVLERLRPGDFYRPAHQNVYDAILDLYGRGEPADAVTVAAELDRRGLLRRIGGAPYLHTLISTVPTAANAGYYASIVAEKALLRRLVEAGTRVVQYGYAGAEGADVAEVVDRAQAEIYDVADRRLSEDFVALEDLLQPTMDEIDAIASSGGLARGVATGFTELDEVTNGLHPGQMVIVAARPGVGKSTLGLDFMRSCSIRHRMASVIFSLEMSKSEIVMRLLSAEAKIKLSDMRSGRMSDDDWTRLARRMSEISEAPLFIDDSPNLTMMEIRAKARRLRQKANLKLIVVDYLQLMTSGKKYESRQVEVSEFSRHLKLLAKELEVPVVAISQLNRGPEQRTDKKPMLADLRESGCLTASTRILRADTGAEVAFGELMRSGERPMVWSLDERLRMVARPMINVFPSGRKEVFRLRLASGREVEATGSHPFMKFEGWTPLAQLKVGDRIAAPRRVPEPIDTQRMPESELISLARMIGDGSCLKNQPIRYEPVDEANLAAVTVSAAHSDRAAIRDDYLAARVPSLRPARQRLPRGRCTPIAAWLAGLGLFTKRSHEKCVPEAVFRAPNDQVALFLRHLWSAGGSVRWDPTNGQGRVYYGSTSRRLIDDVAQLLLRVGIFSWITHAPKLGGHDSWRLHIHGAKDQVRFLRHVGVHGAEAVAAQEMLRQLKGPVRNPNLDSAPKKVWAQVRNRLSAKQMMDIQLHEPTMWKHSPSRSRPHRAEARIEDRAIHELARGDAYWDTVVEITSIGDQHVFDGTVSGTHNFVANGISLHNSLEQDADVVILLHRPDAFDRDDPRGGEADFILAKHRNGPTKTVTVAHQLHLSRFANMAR

HEK293 [11] = assay: cells; format: functional, cell-based; conditions: Homo sapiens; remark: listed apart in the source
HEK293 [12] = assay: cells; format: functional, cell-based; conditions: Homo sapiens; remark: listed apart in the source
HEK293 [13] = assay: HEK cell cytotoxicity by LDH release, dose response, cytotoxicity control for IDE activator project, fluorescence, HEK cells (AID 588440); format: functional, cell-based; conditions: Homo sapiens;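 also: cytotoxicity by LDH release measuring loss of membrane integrity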
Streptococcus = assay: Group A Streptococcus viability loss, dose response, counter-screen for streptokinase expression inhibitor project, luminescence, BacTiterGlo (AID 1915); format: functional, organism-based;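 also: potency for reduction of bacterial viability or growth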
Streptokinase A = biological target: T4, Streptokinase A (Streptococcus pyogenes serotype M1, UniProt P10520); assay: S. pyogenes streptokinase expression inhibitors, potency, dose response, plasminogen activation absorbance, OD405 (AID 1914); format: functional, Streptococcus pyogenes M1 GAS;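 also: secreted streptokinase activity via plasminogen activation per viability signal from cell pellet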
T4 sequence (P10520 whole entry): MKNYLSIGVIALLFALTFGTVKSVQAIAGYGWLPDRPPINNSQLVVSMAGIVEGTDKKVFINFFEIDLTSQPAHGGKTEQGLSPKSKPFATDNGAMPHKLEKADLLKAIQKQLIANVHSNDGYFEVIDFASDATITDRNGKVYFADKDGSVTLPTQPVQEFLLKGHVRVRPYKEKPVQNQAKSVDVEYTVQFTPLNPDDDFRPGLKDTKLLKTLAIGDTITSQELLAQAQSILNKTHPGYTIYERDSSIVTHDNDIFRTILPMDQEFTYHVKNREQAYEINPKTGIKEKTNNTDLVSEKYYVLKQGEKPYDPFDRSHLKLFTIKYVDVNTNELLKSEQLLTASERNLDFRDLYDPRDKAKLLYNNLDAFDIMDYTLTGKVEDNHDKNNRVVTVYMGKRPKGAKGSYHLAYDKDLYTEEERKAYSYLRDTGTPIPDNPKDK

Insulin-degrading enzyme [14] = biological target: T5, Insulin-degrading enzyme (Homo sapiens, UniProt P14735); assay: activators of recombinant IDE enzyme, dose response, counter-screen for IDE activator project, biochemical, fluorescence polarization (AID 588681)
T5 sequence (P14735 whole entry): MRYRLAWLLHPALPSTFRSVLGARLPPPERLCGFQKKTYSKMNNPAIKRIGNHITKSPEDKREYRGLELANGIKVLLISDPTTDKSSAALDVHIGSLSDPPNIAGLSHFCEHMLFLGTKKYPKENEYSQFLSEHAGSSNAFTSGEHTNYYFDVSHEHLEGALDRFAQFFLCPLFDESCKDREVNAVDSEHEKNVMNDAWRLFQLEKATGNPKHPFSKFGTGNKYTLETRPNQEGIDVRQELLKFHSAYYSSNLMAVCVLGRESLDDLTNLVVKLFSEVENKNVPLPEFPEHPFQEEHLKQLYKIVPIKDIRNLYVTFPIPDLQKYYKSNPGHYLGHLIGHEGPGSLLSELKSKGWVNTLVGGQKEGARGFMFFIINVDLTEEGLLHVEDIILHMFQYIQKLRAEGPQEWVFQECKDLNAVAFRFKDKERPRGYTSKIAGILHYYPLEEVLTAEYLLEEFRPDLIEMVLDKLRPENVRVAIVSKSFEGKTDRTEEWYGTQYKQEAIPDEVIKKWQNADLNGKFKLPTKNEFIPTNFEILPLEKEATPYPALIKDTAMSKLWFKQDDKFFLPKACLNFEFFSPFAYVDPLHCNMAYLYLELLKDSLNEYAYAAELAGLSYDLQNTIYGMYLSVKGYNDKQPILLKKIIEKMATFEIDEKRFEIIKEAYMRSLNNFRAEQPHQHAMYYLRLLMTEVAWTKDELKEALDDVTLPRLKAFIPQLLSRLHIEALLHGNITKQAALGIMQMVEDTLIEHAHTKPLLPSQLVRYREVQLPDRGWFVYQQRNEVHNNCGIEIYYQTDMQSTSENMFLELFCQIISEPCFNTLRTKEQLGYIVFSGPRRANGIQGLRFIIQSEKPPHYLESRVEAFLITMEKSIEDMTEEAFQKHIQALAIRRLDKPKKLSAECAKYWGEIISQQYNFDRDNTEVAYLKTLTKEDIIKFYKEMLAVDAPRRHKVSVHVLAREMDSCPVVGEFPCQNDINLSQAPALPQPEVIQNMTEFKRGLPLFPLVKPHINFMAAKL

HEK293 [15] = assay: optical interference in Abeta FP readout, dose response, artefact control for IDE activator project, biochemical, fluorescence polarization (AID 588442); format: functional, cell-based; conditions: Homo sapiens
INS1 = assay: beta cell apoptosis inhibitors, cytokine rescue, dose response, luminescence, retest (AID 449756); format: functional, cell-based; conditions: Rattus norvegicus;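 also: cell death triggered by IL-1 beta plus TNF-alpha plus IFN-gamma mixture; protective hits raise ATP signal compared with cytokine alone wells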
Beta-galactosidase = Beta-galactosidase (Escherichia coli, UniProt Q8VNN2); format: functional
[16] = biological target: T6, Kappa-type opioid receptor (Homo sapiens, UniProt P41145); format: functional
Insulin-degrading enzyme [17] = biological target: T5, Insulin-degrading enzyme; assay: activators of endogenous IDE in HEK cells, dose response, cell-based, fluorescence polarization (AID 588439); format: functional
[18] = system: Streptococcus sp. 'group A'; assay: growth inhibition of control SK(-) GAS strain, dose response, counter-screen for streptokinase expression inhibitor project, luminescence, kanamycin, BacTiterGlo, confirmation (AID 1900); format: functional, organism-based
[19] = biological target: T6, Kappa-type opioid receptor; format: functional; remark: listed apart in the source
H9c2 = assay: cells; format: functional, cell-based; conditions: Rattus norvegicus, H9c2, Myocardium;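 also: confirmatory concentration-response retest of ultra-high-throughput screening hits for modulation of myocardial damage; cell death induced by hydrogen peroxide oxidative stress; compound pretreatment for 60 min then peroxide exposure for 2 h; potency is for protecting the cells against peroxide damage rather than for killing them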

O=C(Nc1ccccc1-c1ccccc1)c1ccc(Cl)c([N+](=O)[O-])c1
EC50 (Troponin, cardiac muscle): > 71.5 µM (inactive)

O=C(O)c1ncc(-c2ccccc2)cn1
EC50 (Troponin, cardiac muscle): > 71.5 µM (inactive)

CC(=O)Nc1cc(C(=O)NCc2ccco2)ccc1Sc1ccc(F)cc1
EC50 (Troponin, cardiac muscle): > 71.5 µM (inactive)

COCCN(C(=O)CCl)C(C(=O)NC1CCCCC1)c1ccccc1C (centres undefined)
IC50 (HEK293 [1]): > 20 µM (inactive)
AC50 [2]: 17.8 µM (active)
EC50 (BJ [3]): > 150 µM (inconclusive)
EC50 [4]: > 20 µM (inactive)
EC50 [5]: 10.5 µM (active)
EC50 (BJ [6]): 14.4 µM (active)
EC50 (BJ [7]): 8.42 µM (active)
EC50 (HEK293 [8]): 4.73 µM (active)
IC50 (HEK293 [9]): 6.74 µM (active)
EC50 (Protein RecA): 1.28 µM (active)
AC50 [10]: 25 µM (active)
IC50 (HEK293 [11]): 6.54 µM (active)
IC50 (HEK293 [12]): 14.9 µM (active)

CCOc1cc(/C=N/Nc2cc(C)nc(-n3nc(C)cc3C)n2)ccc1O
IC50 (HEK293 [13]): 32.3 µM (inactive)
EC50 (Streptococcus): 32.7 µM (active)
EC50 (Streptokinase A): > 150 µM (not active)
EC50 (Insulin-degrading enzyme [14]): > 54.7 µM (inactive)
EC50 (HEK293 [15]): > 54.7 µM (inactive)
AC50 (INS1): 0.862 µM (active)
EC50 (Beta-galactosidase): > 31.5 µM (inactive)
IC50 [16]: > 32 µM
EC50 (Insulin-degrading enzyme [17]): > 54.7 µM (inactive)
EC50 [18]: 1.67 µM (active)
IC50 [19]: > 31.5 µM (inactive)

Cc1nc(N2CCN(c3ccccn3)CC2)c2c(C)c(C(=O)Nc3ccccc3F)sc2n1
IC50 (HEK293 [1]): 14.3 µM (active)
EC50 [4]: 3.56 µM (active)
EC50 (HEK293 [8]): 12.4 µM (active)
IC50 (HEK293 [9]): 5.23 µM (active)
IC50 (H9c2): > 79 µM (inactive)
IC50 (HEK293 [11]): 5.78 µM (active)
IC50 (HEK293 [12]): > 20 µM (inactive)
